The record followed here is patent EP0497258B1, “Use of adenosine antagonists in the prevention and treatment of pancreatitis and ulcer” (FUJISAWA PHARMACEUTICAL CO., LTD., priority 1991, dated 1992).

What all share (type): in vivo, Sprague-Dawley rats
Assay [1] deals with CHA(N^6-cyclohexyladenosine)-induced pancreatitis. Nature of the assay: Effect on CHA-induced pancreatitis (serum amylase). The conditions noted are these: 10 mg/kg orally 30 minutes before CHA; for inhibition %: inhibition of CHA-induced serum amylase increase; for serum amylase (10^3 IU/ℓ): male rats, CHA 3.2 mg/kg orally, blood after 24 hours, Normal 4.1 ± 0.2, Control 28.3 ± 10.0. The procedure: Male Sprague-Dawley rats, weighing 245-260 g, were deprived of food but allowed free access to water for 24 hours CHA was given orally at a dose of 3.2 mg/kg. After 24 hours, animals were killed and blood samples were collected. Subsequently, the blood serum was prepared and amylase concentration was determined. The test compounds (1) to (5) (10 mg/kg) or vehicle (to control group) was given orally 30 minutes before CHA administration. In Normal group, vehicle was given instead of CHA.

Assay [2] relates to ischemia induced gastric ulcer. Nature of the assay: Effect on ischemia induced gastric ulcer (left gastric artery ligation). The procedure:
Male Sprague-Dawley rats (9 or 10 rats for one group) weighing 230 to 270 g were fasted for 24 hours but allowed free access to water ad libitum.
Under ether anesthesia, the abdomen was incised and the left gastric artery was ligated. After closing the abdomen, animals were maintained an regular feed with water ad libitum. The test compound (1) (10 mg/kg/5 ml) for the test group or vehicle (0.1 % methyl cellulose, 5 ml/kg) for the control group was given orally twice a day (9:00 a.m. and 5:00 p.m.) from the first day after the operation for 3 consecutive days. On the fourth day after the operation, the test compound (for the test group) or vehicle (for the control group) was given at 9:00 a.m. and animals were killed at.5:00 p.m.. The stomach was examined for ulcers.
Ulcer index was expressed as lesion area (mean ± standard error).

In assay [3] the test system is CHA(N^6-cyclohexyladenosine)-induced gastric ulcer. Briefly: Effect on CHA-induced gastric ulcer. The conditions noted are these: 10 mg/kg orally 30 minutes before CHA; for inhibition %: inhibition of ulcer index vs Control; for ulcer index (mm^2): male rats, CHA 1 mg/kg subcutaneously, stomachs examined after 7 hours, Control 65.0 ± 18.4. The procedure:
Male Sprague-Dawley rats, weighing 225-259 g, were deprived of food but allowed free access to water for 24 hours. CHA was given subcutaneously at a dose of 1 mg/kg. After 7 hours, animals were killed and stomachs were removed. Subsequently, the stomachs were inflated by injecting 12 ml of 2% formalin to fix the inner layer of gastric walls. Ten minutes later, they were incised along the greater curvature and examined for lesions. Test Compounds (1) to (5) (10 mg/kg) or vehicle (to control group) was given orally 30 minutes before CHA administration.

For assay [4], the system named is serum amylase increment induced by caerulein administration with water immersion restraint stress. Briefly: Effect on serum amylase increment induced by caerulein administration with water immersion restraint stress. The conditions noted are these: male rats, caerulein 50 µg/kg s.c. + water immersion restraint at 23°C for 7 hours; 1 mg/kg orally 30 minutes before caerulein; mean ± standard error; control group 22.5 ± 3.3. Here is the method:
Male Sprague-Dawley rats (6 rats for one group) weighing 210 to 240 g were fasted for 24 hours but allowed free access to water ad libitum. Immediately after caerulein administration (50 µg/kg/2 ml s.c.), rats were placed in restraint cages and immersed in water at 23°C for 7 hours. The animals were killed and blood sample was collected from femoral blood vessels. Serum amylase was measured using Neo-Amylase Test "DAIICHI" (trademark, prepared by DAIICHI KAGAKU YAKUHIN). The test compound (1) (1 mg/kg/5 ml) for the test group or vehicle (0.1 % methyl cellulose, 5 ml/kg) for the control group was given orally 30 minutes before caerulein administration.
Serum amylase concentration was expressed as mean ± standard error.

Consider `O=C(C=Cc1c(-c2ccccc2)nn2ccccc12)N1CCCC[C@@H]1CCO` [Test Compound (1), (2R)-1-[3-(2-Phenylpyrazolo[1,5-a]pyridin-3-yl)acryloyl]-2-(2-hydroxyethyl)piperidine], for which the inhibition % came out at 69.4% in assay [1]; 45.8% in assay [2] (inhibition of ulcer index vs control group, 10 mg/kg orally twice a day); 99.4% in assay [3]. The “serum amylase (10^3 IU/ℓ)” value in assay [1] is 11.5 ± 5.8 10^3 IU/ℓ. For the same compound, the “ulcer index (mm^2)” value worked out at 14.2 ± 4.0 mm^2 in assay [2] (male rats, left gastric artery ligated, 10 mg/kg orally twice a day from first day after operation, killed on fourth day, lesion area, mean ± standard error, control group 26.2 ± 6.0) and 0.4 ± 0.4 mm^2 in assay [3]. For the same compound, the “serum amylase (10^3 IU/L)” value in assay [4] is 13.8 ± 1.0 10^3 IU/L.

As to `O=C(O)CCCn1nc(-c2c(-c3ccccc3)nn3ccccc23)ccc1=O` [Test Compound (2), 3-[2-(3-Carboxypropyl)-3-oxo-2,3-dihydropyridazin-6 yl]-2-phenylpyrazolo[1,5-a]pyridine], in assay [1], the inhibition % was determined as 99.6% and the “serum amylase (10^3 IU/ℓ)” value is 4.2 ± 0.3 10^3 IU/ℓ. For the same compound, in assay [3], the inhibition % was determined as 97.1% and the “ulcer index (mm^2)” value was 1.9 ± 1.9 mm^2.

Turning to `O=C(O)C[C@H]1CCCCN1C(=O)C=Cc1c(-c2ccccc2)nn2ccccc12` [Test Compound (3), (2R)-1-[3-(2-Phenylpyrazolo[1,5-a]pyridin-3-yl)acryloyl]-2-(carboxymethyl)piperidine], in assay [1], the inhibition % was 92.6% and the “serum amylase (10^3 IU/ℓ)” value is 5.9 ± 1.0 10^3 IU/ℓ. In assay [3], the inhibition % is reported as 99.8% and the “ulcer index (mm^2)” value is given as 0.1 ± 0.1 mm^2.
